{
  "source": "paper PMC3923439",
  "about": "“Anti-inflammatory properties of a novel peptide interleukin 1 receptor antagonist” (Journal of Neuroinflammation, 2014)",
  "key": {"[1]": {"test_system": "HEK-Blue IL-6 cells (STAT3)", "assay": "IL-6-induced STAT3 activation, SEAP reporter", "format": "cell-based", "conditions": "1.2 pM IL-6, 24 hours, SEAP read at 600 nm", "experimental": "HEK-Blue IL-1β cells that contained an IL-1β-sensitive reporter (InvivoGen, San Diego, CA, USA) and HEK-Blue IL-6 cells that contained an IL-6-sensitive reporter (InvivoGen) were grown at 37°C with 5% CO2 in Dulbecco’s modified Eagle’s medium (DMEM) supplemented with 5% (vol/vol) fetal calf serum (FCS), 4.5 g/L glucose, 2 mM GlutaMAX medium, 100 U/ml penicillin, 100 μg/ml streptomycin (all obtained from Gibco BRL/Life Technologies, Taastrup, Denmark), 100 μg/ml zeocin, 200 μg/ml hygromycin and 100 μg/ml Normocin (all purchased from InvivoGen).\nHEK-Blue IL-6 cells were grown as described above. IL-6 cells allow the monitoring of the activation of the signal transducer and activator of transcription 3 (STAT3) pathway specifically in response to IL-6. They express a STAT3-inducible SEAP reporter gene. For the STAT3 activation assay, the cells were treated with 1.2 pM IL-6 alone or together with various concentrations of Ilantide. TNF-α (1.2 pM) was added as a control ligand for both the NF-κB and STAT3 assays. After 24-hour incubation at 37°C, 150 μl of HEK-Blue cell supernatant were added to each well of a 96-well plate together with 50 μl of QUANTI-Blue (InvivoGen), incubated at 37°C in the dark for 40 minutes and measured in an ELISA reader at 600 nm to determine the expression level of the secreted SEAP."}, "[2]": {"test_system": "neonatal rat pancreatic islets", "assay": "IL-1β-induced nitric oxide production (nitrite, Griess reagent)", "format": "cell-based", "conditions": "nitrites in supernatants of the apoptosis experiments, four independent experiments", "experimental": "For cell death detection, rat islets were incubated with 150 pg/ml IL-1β (BD Pharmingen, San Diego, CA, USA) alone or in combination with various concentrations of Ana and Ilantide for 24 hours at 37°C in humidified atmospheric air. Rat islet cell death was assessed by cell death detection ELISA (Roche, Lund, Sweden) as previously described. As a surrogate measure of nitric oxide production, Griess reagent (1:1 aqueous mixture of 0.1% naphthylethylenediamine hydrochloride and 1% sulfanilamide + 5% H3PO4) was mixed in a 1:1 ratio with 100 μl of supernatant samples to determine the nitrite content in supernatants from the cell death assays described above.\nFigure 8 Effect of Ilantide on interleukin 1β-induced nitric oxide production. Anakinra (A) but none of the peptides, Ilantide-m (B) or Ilantide-t (C), inhibited interleukin 1β (IL-1β)-induced nitric oxide production. The results of four independent experiments are shown. *P < 0.05 and **P < 0.01 compared with cultures treated with IL-1 alone (one-way analysis of variance followed by Dunnett’s post hoc test)."}, "[3]": {"assay": "Pharmacokinetics: plasma and CSF concentration by competitive ELISA", "format": "in vivo", "conditions": "rat, single s.c. 10 mg/kg, calculated", "experimental": "Biotinylated Ilantide-t (Schafer-N) was administered to adult male Wistar rats subcutaneously (s.c.) at a dose of 10 mg/kg. Twenty minutes, sixty minutes, one hundred forty minutes, five hours and thirty hours after peptide administration, blood samples (approximately 300 μl) were collected from the orbital plexus under fentanyl/droperidol/midazolam anesthesia (0.002%/0.14%/0.014% wt/vol) (Department of Experimental Medicine, University of Copenhagen, Denmark) in ethylenediaminetetraacetic acid–coated tubes (BD, Plymouth, UK), and 50 to 110 U/ml aprotinin (Calbiochem, San Diego, CA, USA) was added immediately to the collected blood. The samples were subsequently centrifuged at 1,500 × g for 15 minutes. Cerebrospinal fluid (CSF) was collected from the cisterna magna 30 minutes after peptide administration as described previously. Plasma and CSF samples were stored at -80°C.\nThe concentrations of Ilantide-t in plasma and CSF samples were measured by performing a competitive ELISA on amino 96-well plates (Nunc). […] Color development was terminated by the addition of 2 M H2SO4 (100 μl/well), and absorbance was read at 450 nm on a Wallac Victor 1420 multilabel counter (PerkinElmer, Hvidovre, Denmark). Peptide concentrations in the samples were determined using a standard curve. […]"}},
  "note": "Positions of bridges follow the written chain, without caps; N, C: chain ends. Chains are numbered I, II in the order given. No end group written: not given here.",
  "data": [
    {"substance": "I: SGRKSSKMQAKK-NH2 / II: SGRKSSKMQAK / III: SGRKSSKMQA / IV: SGRKSSKMQA (amide I:11-IV:C, I:12-II:C, II:11-III:C; C-terminus assumed) [Ilantide-t]", "values": [
      {"measurement": "Inhibition of STAT3 activation induced by IL-6", "setting": "[1]", "result": "did not inhibit"},
      {"measurement": "Inhibition of IL-1β-induced nitric oxide production", "setting": "[2]", "result": "none"},
      {"measurement": "Plasma half-life", "setting": "[3]", "result": "approximately 2 hours"}
    ]}
  ]
}
